In general, EC50 refers to the concentration needed to bring the measured effect to its halfway point. In general, IC50 refers to the concentration at which inhibition is half-maximal.

Our source for the EC50 and IC50 values is ChEMBL document CHEMBL1201862, “PubChem BioAssay data set” (2004).

Assay [1] concerns Streptococcus sp. 'group A'. Briefly: growth inhibition of control SK(-) GAS strain, dose response, counter-screen for streptokinase expression inhibitor project, luminescence, kanamycin, BacTiterGlo, confirmation (AID 1900). In kind it is functional, organism-based. On the technique in general: Counterscreens check selectivity or assay interference.
In another assay the target is T1, Streptokinase A (Streptococcus pyogenes serotype M1, UniProt P10520).
T1 sequence (P10520 whole entry): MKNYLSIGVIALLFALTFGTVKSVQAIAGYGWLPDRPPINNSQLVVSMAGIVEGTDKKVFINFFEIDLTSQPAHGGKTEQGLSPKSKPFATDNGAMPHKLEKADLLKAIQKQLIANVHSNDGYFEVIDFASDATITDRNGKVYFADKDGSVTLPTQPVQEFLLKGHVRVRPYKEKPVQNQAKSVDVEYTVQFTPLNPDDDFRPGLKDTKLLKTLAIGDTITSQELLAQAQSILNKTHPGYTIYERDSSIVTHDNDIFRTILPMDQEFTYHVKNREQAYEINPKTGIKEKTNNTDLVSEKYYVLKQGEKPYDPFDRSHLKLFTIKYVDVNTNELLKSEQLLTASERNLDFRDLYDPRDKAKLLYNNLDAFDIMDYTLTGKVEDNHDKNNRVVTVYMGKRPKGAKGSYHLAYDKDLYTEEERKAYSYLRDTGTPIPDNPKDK
Description: S. pyogenes streptokinase expression inhibitors, potency, dose response, plasminogen activation absorbance, OD405 (AID 1914).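 Note: secreted streptokinase activity via plasminogen activation per viability signal from cell pellet.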 In kind it is functional, Streptococcus pyogenes M1 GAS.

For the next assay, the system named is Streptococcus. Briefly: Group A Streptococcus viability loss, dose response, counter-screen for streptokinase expression inhibitor project, luminescence, BacTiterGlo (AID 1915).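 Note: potency for reduction of bacterial viability or growth.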 In kind it is functional, organism-based.
The nature of the next assay: cells. Type of assay: functional.
The nature of assay [2]: Luminescence Cell-Based Dose Response HTS to Identify Activators of Luciferase Translation or Activity in H4 […] Cells. [Related pubchem assays: 1829 (Project Summary), 1814 (Primary HTS)]. In kind it is functional.
In another assay the test system is H4. Briefly: Luminescence Cell-Based Dose Response HTS to Identify Activators of 5'UTR Stem-Loop Driven Prion Protein mRNA Translation in H4 Neuroglioblastoma Cells. [Related pubchem assays: 1829 (Project Summary), 1814 (Primary HTS)]. Type of assay: functional. The settings on record: Homo sapiens.
The nature of assay [3]: inhibitors of intracellular T. cruzi replication, confirmation, NIH3T3 host cells, beta-gal luminescence (AID 2044).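 Note: intracellular parasites grown in NIH/3T3 mouse fibroblasts as host cells; luminescent beta-galactosidase reporter signal from transgenic T. cruzi replicating inside host cells; inhibitors lower the luminescence signal.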 In kind it is functional, cell-based.
Assay [4] is described as follows: cytotoxicity toward NIH3T3 fibroblasts, dose response, counter-screen, cell-based, ATP luminescence, mouse fibroblasts (AID 2010).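 Note: cells exposed to compound for about 90 hours before reading.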 Type of assay: functional.

Active and inactive are the calls of the source. Cut-off read from the data, not from the text of the source, for most assays here: actives have a measured EC50 and inactives only a lower limit.

For `OC(COc1cccc2ccccc12)CN1CCN(c2cccc(Cl)c2)CC1` (centres undefined), the concentration giving a half-maximal response (EC50) in assay [1] is 15.5 µM (active); on Streptokinase A, 20.1 µM (active); in the assay on Streptococcus, 31 µM (active).
For `CCOC(=O)c1cnn(-c2nc(-c3ccccc3)cs2)c1C(F)(F)F`, the half-maximal effective concentration (EC50) in assay [1] was 14.6 µM (active); on Streptokinase A it was 15.6 µM (active); with Streptococcus, > 150 µM (not active).
As to `NNc1nc(-c2ccccc2)c2cc(Br)ccc2n1`, the EC50 was 10.1 µM (active) in assay [1], > 150 µM (not active) at Streptokinase A and 41.8 µM (active) in the assay on Streptococcus.
On to `O=S(=O)(Nc1nc2ccccc2nc1Cl)c1ccc2ccccc2c1`, for which the EC50 in assay [1] is 9.62 µM (active); on Streptokinase A it was 15.1 µM (active); in the assay with Streptococcus it was > 150 µM (not active).
Regarding `Fc1cccc2sc(N3CCCC3)nc12`, the IC50 in “cells” is > 50 µM (active).
Turning to `CC(C)(C)c1ccc(OCCC(=O)OCC(=O)NC2CC2)cc1`, in “cells”, the concentration for half-maximal inhibition (IC50) was 48.5 µM (active).
As to `COc1ccc(/C=C/c2ccc3cccc(O)c3n2)cc1Br`, the EC50 in assay [1] is 0.796 µM (active); at Streptokinase A it was > 150 µM (not active); with Streptococcus it was 13.5 µM (active).
As for `N#CCSc1nc2ccc(N3CCOCC3)cc2c(=O)n1CCc1ccccc1`, the concentration giving a half-maximal response (EC50) in assay [1] was 7.19 µM (active); at Streptokinase A it was > 150 µM (not active); in the assay with Streptococcus it was 13.1 µM (active).
In the case of `O=c1[nH]c2ccc(Cl)cc2c(-c2ccccc2)c1N1CCN(c2ccccn2)CC1`, the EC50 at Streptokinase A is 3.83 µM (active).
As for `COc1ccc(-c2cc(=O)oc(-c3cccc(C)c3)n2)cc1`, the 50% inhibitory concentration (IC50) in “cells” is 35.9 µM (active).
For `CCOC(=O)C(=NCCOC)NNc1cc(Cl)ccc1Cl`, in the assay “cells”, the half-inhibitory concentration (IC50) was > 50 µM (active).
Turning to `Fc1ccc(CSc2nnc(-c3ccccn3)o2)cc1`, the 50% effective concentration (EC50) is 0.103 µM (active) in assay [2] and 0.175 µM (active) in the assay on H4.
As to `CCCCNC(=O)Nc1nnc(-c2ccc(Cl)cc2)o1`, the IC50 in “cells” is 13.2 µM (active).
For `O=c1c2ccccc2nc2oc3ccccc3n12`, the EC50 in assay [2] was 0.123 µM (active); with H4, 0.139 µM (active).
For the compound `O=C(Nc1cccc(C(F)(F)F)c1)c1cc2c(=O)c3ccccc3oc2nc1C(F)(F)F`, the concentration giving a half-maximal response (EC50) in assay [1] was 18.7 µM (active); on Streptokinase A, 43.3 µM (inconclusive); with Streptococcus, 65.1 µM (active).
`CCOC(=O)C(C)(C)n1nnc(-c2ccc([N+](=O)[O-])cc2)n1`: the IC50 in “cells” is 45.9 µM (active).
Take `COC(=O)c1cc2c(ccc3ccccc32)oc1=O`: the half-maximal inhibitory concentration (IC50) in the assay “cells” is 6.54 µM (active).
As to `O/C(=C\C=N\c1ccccc1O)c1ccco1`, the IC50 in “cells” was 4.76 µM (active).
For `O=C(NCc1ccc(C(F)(F)F)cc1)c1ccc2c(c1)S(=O)(=O)c1ccccc1C2=O`, the EC50 (in assay [1]; at Streptokinase A; in the assay with Streptococcus) was > 150 µM (not active) throughout.
Consider `C/C(=N\NC(=O)c1cc2ccccc2cc1O)c1cccs1`, for which the EC50 in assay [1] is 18.3 µM (active); on Streptokinase A, > 150 µM (not active); in assay [3], 44.7 µM (active); in assay [4], > 60 µM (not active); in the assay on Streptococcus, 59.6 µM (active).
As for `CN(C)/C=N/c1ncc(C(=O)c2ccccc2)s1`, the concentration for a half-maximal effect (EC50) is 0.251 µM (active) in assay [2] and 119 µM (active) with H4.
For the compound `O=C1/C(=C/c2cccnc2)S/C(=N/Cc2ccccc2)N1Cc1ccccc1`, the EC50 is 21.6 µM (active) in assay [1]; 14.7 µM (active) at Streptokinase A; 1.66 µM (active) in assay [3]; > 60 µM (not active) in assay [4]; > 150 µM (not active) in the assay with Streptococcus.
